This passage reports Ki results from BindingDB's records for PubMed 7562497 (R. W. Johnson Pharmaceutical Research Institute, 1995).

Molecules are shown by their SMILES. Values joined by “and” are separate entries in the source; they are usually repeats but may differ in a detail not shown here. Equal values may be shown once. Some results are limits rather than exact numbers.

In test [1] the target is Norepinephrine transporter (Rattus norvegicus, UniProt Q9JIA2).
The target in test [2] is Sodium-dependent serotonin transporter (Rattus norvegicus, UniProt P31652).
In test [3] the target is Kappa-type opioid receptor (Rattus norvegicus, UniProt P34975).
A further test has as its target Mu-type opioid receptor (Rattus norvegicus, UniProt P33535).

Sequence of Mu-type opioid receptor (P33535 whole entry): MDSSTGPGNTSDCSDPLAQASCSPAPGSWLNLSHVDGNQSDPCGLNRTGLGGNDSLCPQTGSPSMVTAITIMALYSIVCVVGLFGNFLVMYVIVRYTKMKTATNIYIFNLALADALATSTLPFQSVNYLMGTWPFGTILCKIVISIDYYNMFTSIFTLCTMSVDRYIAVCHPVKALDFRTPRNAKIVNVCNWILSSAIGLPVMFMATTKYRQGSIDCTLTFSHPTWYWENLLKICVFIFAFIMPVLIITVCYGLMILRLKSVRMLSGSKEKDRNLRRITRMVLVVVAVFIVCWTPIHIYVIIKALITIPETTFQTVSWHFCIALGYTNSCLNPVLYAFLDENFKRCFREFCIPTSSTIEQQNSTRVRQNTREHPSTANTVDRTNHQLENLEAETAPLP
Sequence of Sodium-dependent serotonin transporter (P31652 whole entry): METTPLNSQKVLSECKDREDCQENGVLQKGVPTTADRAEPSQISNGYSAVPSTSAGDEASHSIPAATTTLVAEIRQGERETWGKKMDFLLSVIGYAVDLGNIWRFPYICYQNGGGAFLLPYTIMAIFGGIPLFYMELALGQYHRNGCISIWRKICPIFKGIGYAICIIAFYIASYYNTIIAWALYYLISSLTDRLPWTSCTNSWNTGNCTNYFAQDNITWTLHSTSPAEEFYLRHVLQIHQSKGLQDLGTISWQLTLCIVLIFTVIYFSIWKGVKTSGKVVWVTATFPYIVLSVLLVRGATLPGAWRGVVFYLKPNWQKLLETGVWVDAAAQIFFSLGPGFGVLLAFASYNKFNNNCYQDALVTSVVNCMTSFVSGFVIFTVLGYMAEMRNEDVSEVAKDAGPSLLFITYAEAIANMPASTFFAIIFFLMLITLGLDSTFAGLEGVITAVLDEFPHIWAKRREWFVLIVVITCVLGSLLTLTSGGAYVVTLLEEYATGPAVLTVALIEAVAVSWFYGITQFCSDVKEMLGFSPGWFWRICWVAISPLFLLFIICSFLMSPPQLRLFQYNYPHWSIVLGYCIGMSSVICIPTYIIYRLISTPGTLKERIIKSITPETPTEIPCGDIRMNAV
Sequence of Kappa-type opioid receptor (P34975 whole entry): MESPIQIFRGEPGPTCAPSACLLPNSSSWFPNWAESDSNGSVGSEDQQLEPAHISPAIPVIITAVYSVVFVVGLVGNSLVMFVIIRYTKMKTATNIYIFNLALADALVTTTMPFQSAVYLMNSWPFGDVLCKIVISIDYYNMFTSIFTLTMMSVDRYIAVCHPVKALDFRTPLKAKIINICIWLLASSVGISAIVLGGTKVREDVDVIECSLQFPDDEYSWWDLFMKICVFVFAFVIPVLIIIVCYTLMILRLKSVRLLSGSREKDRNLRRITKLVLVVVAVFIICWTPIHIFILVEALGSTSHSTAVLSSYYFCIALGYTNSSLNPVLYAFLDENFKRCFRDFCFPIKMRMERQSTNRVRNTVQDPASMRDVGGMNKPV

Usually Ki stands for the equilibrium dissociation constant of an inhibitor or competing ligand from its target. Low readings indicate higher affinity, high ones lower affinity. For the molecule `CCC(OC(C)=O)C(CC(C)N(C)C)(c1ccccc1)c1ccccc1` (stereo not drawn), the Ki in test [1] is above 10 µM.

Regarding `CN1CCC23CCCCC2C1Cc1ccc(O)cc13` (stereo not drawn) [17-methyl-17-azatetracyclo[7.5.3.0^{1,10}.0^{2,7}]heptadeca-2(7),3,5-trien-4-ol], the inhibition constant (Ki) in test [2] is 0.401 µM and 0.0863 µM; in test [1], 0.34 µM and 1.21 µM.

`O=C1CC[C@@]2(O)[C@H]3Cc4ccc(O)c5c4[C@@]2(CCN3CC2CC2)[C@H]1O5` [(1S,5R,13R,17S)-4-(cyclopropylmethyl)-10,17-dihydroxy-12-oxa-4-azapentacyclo[9.6.1.0^{1,13}.0^{5,17}.0^{7,18}]octadeca-7(18),8,10-trien-14-one]: the Ki in test [2] and in test [1] was above 10 µM in each case.

In the case of `CC1(C)SSC(C)(C)[C@@H](NC(=O)[C@@H](N)Cc2ccc(O)cc2)C(=O)NCC(=O)N[C@@H](Cc2ccccc2)C(=O)N[C@H]1C(=O)O` [(4S,7S,13S)-13-[(2S)-2-amino-3-(4-hydroxyphenyl)propanamido]-7-benzyl-3,3,14,14-tetramethyl-6,9,12-trioxo-1,2-dithia-5,8,11-triazacyclotetradecane-4-carboxylic acid], the Ki in test [3], in test [2] and in test [1] was above 10 µM in each case.

Regarding `CO[C@@]12CC[C@@]3(C[C@@H]1[C@@](C)(O)C(C)(C)C)[C@H]1Cc4ccc(O)c5c4[C@@]3(CCN1CC1CC1)[C@H]2O5` [BUPRENORPHINE], the Ki in test [2] and in test [1] was above 10 µM each time.

Regarding `COc1ccc2c3c1OC1C(O[Si](C)(C)C)C=CC4C(C2)N(C)CCC341` (stereo not drawn) [CAS_553916], the Ki in test [3] is 0.501 µM; on Mu-type opioid receptor, 0.0111 µM; in test [2], above 10 µM; in test [1], above 10 µM.

In the case of `C=CCN1CC[C@]23CCCCC2[C@H]1Cc1ccc(O)cc13` (stereo partly drawn) [Levallorphan], the Ki in test [2] is > 10 µM and 7.95 µM.

Regarding `COc1ccc2c(c1)C13CCCCC1C(C2)N(C)CC3` (stereo not drawn) [Levomethorpan], the Ki in test [1] was 0.24 µM and 0.179 µM.

On to `c1cc2c(c(NC3=NCCN3)c1)CCCC2` [NSC_19472], for which the Ki in test [3] is above 10 µM; on Mu-type opioid receptor, 2.12 µM and 1.33 µM and > 10 µM; in test [2] it was 0.992 µM and 0.528 µM and 2.35 µM; in test [1] it was 0.785 µM and 2.51 µM and 0.432 µM.

Consider `COc1ccc2c3c1OC1C(O)C=CC4C(C2)N(C)CCC341` (stereo not drawn) [NSC_223652], for which the Ki in test [2] and in test [1] was above 10 µM in each case.

As for `COc1ccc2c3c1O[C@H]1C(=O)CCC4(O)[C@@H](C2)N(C)CC[C@]314` (stereo partly drawn) [Oxycodone], the Ki in test [2] and in test [1] was above 10 µM in each case.

Regarding `CCC(=O)O[C@](Cc1ccccc1)(c1ccccc1)[C@H](C)CN(C)C` [PROPOXYPHENE], the Ki in test [3] was 1.22 µM; on Mu-type opioid receptor, 0.0345 µM; in test [2], above 10 µM; in test [1] it was above 10 µM.

Consider `C=CCN1CC[C@]23c4c5ccc(O)c4O[C@H]2C(=O)CC[C@@]3(O)[C@H]1C5` [[17-(2,3-3H-2-propenyl)]-4,5a-epoxy-3,14-dihydroxymorphinan-6-one], for which the Ki in test [2] and in test [1] was above 10 µM in each case.

In the case of `C[C@@H](NC(=O)[C@@H](N)Cc1ccc(O)cc1)C(=O)NCC(=O)N(C)[C@@H](Cc1ccccc1)C(=O)NCCO` [[tyrosyl-3,5-3H(N)]-D-Ala2-Mephe4-glyol5-enkephalin], the Ki was 0.21 µM in test [3], above 10 µM in test [2] and above 10 µM in test [1].
